Laboratory results as given in patent US20220162188A1, “ISOPRENOIDS AND METHODS OF MAKING THEREOF” (NORTH CAROLINA STATE UNIVERSITY, priority 2019, published 2022).
Entries after “also recorded” stand apart in the source; their conditions may differ.

Assays:
[1] = target: T1, isopentenyl phosphate kinase (IPK) (Thermoplasma acidophilum, UniProt Q9HLX1); assay type: biochemical; conditions: overnight reaction
T1 sequence (Q9HLX1 1-245): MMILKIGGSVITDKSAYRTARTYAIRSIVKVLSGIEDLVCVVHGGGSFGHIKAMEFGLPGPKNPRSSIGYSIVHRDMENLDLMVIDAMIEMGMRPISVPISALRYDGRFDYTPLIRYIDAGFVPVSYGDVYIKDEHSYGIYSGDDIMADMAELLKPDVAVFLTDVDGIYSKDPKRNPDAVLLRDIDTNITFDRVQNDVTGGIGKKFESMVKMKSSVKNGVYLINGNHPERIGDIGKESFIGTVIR
Description: Since the substrate scope of IPK has yet to be fully described, here IPK was tested against a wider panel of substrates. The IPK gene from T. acidophilum was codon optimized and subcloned into pET28a. Following expression in E. coli BL21 DE3, the enzyme was purified via metal-chelation affinity chromatography. Next, the substrate specificity of the enzyme was determined in vitro using a panel of synthesized alcohol monophosphates using low resolution mass spectrometry (FIG. 25). The availability of alcohol diphosphate byproducts (FIG. 23) conveniently served as product standards.
Assay for Initial Activity of Monophosphates with IPK. Fractions from the synthesis of the diphosphates on a 400 μmol scale containing the monophosphates were concentrated in vacuo and resuspended to 5 mg/mL in water. Enzymatic reaction mixtures contained 50 mM Tris (pH 8.0), 2.5 mM MgCl2, 0.05 mM DTT, 1 mM ATP, and 4.2 μg of enzyme in a 200 μL reaction with 40 μL of substrate (1 mg/mL final). A reaction mixture without enzyme was setup as a control. Reactions were incubated overnight at 37° C. and checked by low-resolution LC-MS for diphosphate product formation. Standards from the isolated diphosphates were used to confirm retention time and mass. Reactions with a >10% diphosphate generation as compared to the no enzyme control were selected for kinetic experiments. LC-MS experiments were conducted using a Shimadzu LC-MS 2020 single quadrupole instrument with a Phenomenex Kinetex UPLC C18 column (2.1×50 mm, […], 100 Å pores) column. 5 μL was injected onto and separated using a series of linear gradients developed from 0.1% formic acid in H2O (A) to 0.1% formic acid in acetonitrile (B) at 0.2 mL/min using the following protocol: 0-2.2 min, 95-1% A; 2.21-2.6 min, 1% A; 2.61-2.62 min, 1-95% A; 2.63-3.5 min, 95% A. Products of enzymatic reactions were verified by mass and comparison with diphosphate standards previously synthesized.

[2] = tested on: lycopene production via the DXP pathway; experiment: Lycopene colorimetric reporter assay; assay type: cell-based; conditions: Fs 0.5 μM; E. coli BL21Tuner(DE3) lycopene reporter strain expressing IPK
CpaD = CpaD (Aspergillus oryzae, UniProt F5HN73); experiment: Substrate specificity of prenyltransferase CpaD in vitro; assay type: biochemical; conditions: pyrophosphate 0.3 mM, cyclic dipeptide 0.25 mM, CpaD 1 mg/mL
Description: Broad substrate specificity of the prenyltransferase CpaD in vitro. Each chemically synthesized pyrophosphate (0.3 mM) and cyclic dipeptide (0.25 mM) were tested for activity with purified CpaD (1 mg/mL). […] The results are illustrated in FIG. 60 and FIG. 61.

[3] = target: T1, isopentenyl phosphate kinase (IPK); experiment: NADH-coupled kinetic assay of IPK
Description: The data was fitted to the Michaelis-Menten equation using SigmaPlot, and the kinetic parameters (kcat, Km, kcat/Km) extracted.
NADH-Coupled Kinetic Assays. NADH coupled assays were performed with purified enzymes. Reaction progress was monitored by absorbance at 340 nm at 30° C. in a 96-well plate using a Biotek Synergy 4 plate reader (Winooski, Vt.). 200 μL enzymatic mixtures contained 50 mM Tris (pH 8.0), 25 mM KCl, 2.5 mM MgCl2, 0.05 mM DTT, 1 mM ATP, 320 μM NADH, 400 μM phosphoenolpyruvate, 0.5 U pyruvate kinase, 0.7 U lactate dehydrogenase, and various amounts of substrate. Conditions were verified by doubling enzyme and verifying the initial rate was doubled as well.
Kinetics of IPK were done with purified enzyme using 0.09 μg of enzyme per well. Serial dilution was used to generate specific concentrations of substrates (3125, 1562, 781, 625, 391, 195, 98, 24, 12, and 3 μM). Each condition was performed in triplicate. Nonlinear regression was fitted using SigmaPlot (Systat Software Inc., San Jose, Calif., USA).

PhoN = experiment: Substrate specificity of wild-type PhoN, HR-LCMS; assay type: biochemical, Shigella flexneri; conditions: alcohol 100 mM, PhoN 20 μg/mL, ATP 50 mM
Description: Broad substrate specificity of wild-type PhoN. Each commercially available alcohol (100 mM) was tested for activity with purified PhoN (20 μg/mL) and ATP (50 mM). The product mixtures were analyzed by high resolution liquid chromatography mass spectrometry (HR-LCMS) to quantify the conversion of alcohol to mono-phosphate. Quantification was achieved by the addition of an internal standard (either geranyl phosphate or cinnamyl monophosphate) at known fixed concentration. The results are illustrated in FIG. 54 and FIG. 55.

FtmPT1 = FtmPT1 (Aspergillus fumigatus, UniProt Q4WAW7); assay type: biochemical; conditions: pyrophosphate 2 mM, cyclic dipeptide 1 mM
FgaPT2 = FgaPT2 (Aspergillus fumigatus, UniProt Q50EL0); experiment: Substrate specificity of wild-type prenyltransferase FgaPT2 in vitro; assay type: biochemical; conditions: pyrophosphate 3 mM, FgaPT2 200 μg/mL, Trp 1 mM
Description: Broad substrate specificity of the wild-type prenyltransferase FgaPT2 in vitro. Each chemically synthesized pyrophosphate (3 mM) was tested for activity with purified FgaPT2 (200 μg/mL) and Trp (1 mM). The product mixtures were analyzed by HR-LCMS to identify the mass ions consistent with the expected alkylated product. The substrate (Trp) and product peak areas were determined by high performance liquid chromatography (HPLC) at a detection wavelength of 269 nm, and the conversion was calculated. The results are illustrated in FIG. 56 and FIG. 57.

IspA Y80D = IspA Y80D (Escherichia coli, UniProt P22939, Y79D); assay type: biochemical; conditions: DMAPP as starter unit
[4] = target: IspA, a farnesyl diphosphate synthase (FPPase) (Escherichia coli, UniProt P22939); conditions: wild-type IspA
IspA S81F = IspA S81F (Escherichia coli, UniProt P22939, S80F); assay type: biochemical; conditions: DMAPP as starter unit
Chain of IspA S81F (P22939 whole entry S80F): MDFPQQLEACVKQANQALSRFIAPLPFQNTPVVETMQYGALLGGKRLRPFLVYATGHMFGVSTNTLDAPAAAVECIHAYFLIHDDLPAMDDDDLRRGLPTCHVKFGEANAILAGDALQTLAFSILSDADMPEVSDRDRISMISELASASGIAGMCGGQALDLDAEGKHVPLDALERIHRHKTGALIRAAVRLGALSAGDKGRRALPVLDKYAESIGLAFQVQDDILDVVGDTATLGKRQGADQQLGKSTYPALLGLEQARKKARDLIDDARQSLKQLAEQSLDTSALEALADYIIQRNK

Chain of IspA, a farnesyl diphosphate synthase (FPPase) (P22939 whole entry): as the sequence (P22939 whole entry S80F) above, with F80S counted along it
Chain of CpaD (F5HN73 whole entry, species assumed): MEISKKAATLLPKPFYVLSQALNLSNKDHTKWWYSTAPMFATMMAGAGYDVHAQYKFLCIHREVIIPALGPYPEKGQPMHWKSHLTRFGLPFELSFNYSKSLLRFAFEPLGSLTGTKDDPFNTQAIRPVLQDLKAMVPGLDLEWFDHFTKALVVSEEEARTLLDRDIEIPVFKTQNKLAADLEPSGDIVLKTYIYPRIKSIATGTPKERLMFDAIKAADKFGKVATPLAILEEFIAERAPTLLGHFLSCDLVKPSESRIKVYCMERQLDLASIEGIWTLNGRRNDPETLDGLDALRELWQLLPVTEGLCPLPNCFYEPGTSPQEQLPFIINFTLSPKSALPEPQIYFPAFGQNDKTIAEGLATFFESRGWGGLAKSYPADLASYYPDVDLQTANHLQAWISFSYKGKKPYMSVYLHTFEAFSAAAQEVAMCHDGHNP
Chain of FtmPT1 (Q4WAW7 whole entry): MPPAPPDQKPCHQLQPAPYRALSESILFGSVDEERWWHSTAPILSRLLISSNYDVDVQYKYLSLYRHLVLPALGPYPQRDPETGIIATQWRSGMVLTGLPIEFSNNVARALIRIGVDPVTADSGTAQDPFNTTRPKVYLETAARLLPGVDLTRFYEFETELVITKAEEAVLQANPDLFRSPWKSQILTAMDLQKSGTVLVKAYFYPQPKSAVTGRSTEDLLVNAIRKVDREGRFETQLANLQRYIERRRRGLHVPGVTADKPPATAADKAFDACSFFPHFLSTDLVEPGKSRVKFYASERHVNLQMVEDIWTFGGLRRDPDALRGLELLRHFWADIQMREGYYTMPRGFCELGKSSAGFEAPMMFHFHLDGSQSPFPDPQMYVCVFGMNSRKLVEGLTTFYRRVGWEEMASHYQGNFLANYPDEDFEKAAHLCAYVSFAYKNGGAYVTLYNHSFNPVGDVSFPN
Chain of IspA Y80D (P22939 whole entry Y79D): as the sequence (P22939 whole entry S80F) above, with Y79D, F80S counted along it
Chain of FgaPT2 (Q50EL0 whole entry): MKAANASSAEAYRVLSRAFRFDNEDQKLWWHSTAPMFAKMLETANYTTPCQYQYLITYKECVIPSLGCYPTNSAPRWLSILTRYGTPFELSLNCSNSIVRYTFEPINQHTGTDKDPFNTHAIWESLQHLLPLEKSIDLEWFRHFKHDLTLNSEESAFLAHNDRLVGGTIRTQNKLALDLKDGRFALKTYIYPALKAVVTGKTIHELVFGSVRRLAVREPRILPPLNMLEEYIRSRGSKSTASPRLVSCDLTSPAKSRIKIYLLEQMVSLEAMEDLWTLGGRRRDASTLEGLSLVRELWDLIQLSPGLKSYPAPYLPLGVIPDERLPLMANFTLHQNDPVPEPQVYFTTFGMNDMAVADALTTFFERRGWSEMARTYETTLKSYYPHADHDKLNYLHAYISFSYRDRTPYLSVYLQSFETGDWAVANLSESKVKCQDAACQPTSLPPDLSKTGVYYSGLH

With `CC(C)=CCC/C(C)=C\CC/C(C)=C\COP(=O)(O)O` [FP, farnesyl monophosphate] the “phosphorylation by IPK to the corresponding pyrophosphate, as judged by MS” value (from here on “phosphorylation by IPK”) [1] was “did not result in detection of the corresponding pyrophosphate”.

`O=CN(O)CCCP(=O)(O)O` [Fs, fosmidomycin] was tested, and the lycopene production [2] was “almost completely inhibited lycopene production”.

`CC(C)=CCC/C(C)=C/COP(=O)(O)O` [GP, geranyl monophosphate] was tested, and the “phosphorylation by IPK” value [1] was “did not result in detection of the corresponding pyrophosphate”.

In the case of `CC(C)=CCC/C(C)=C\COP(=O)(O)O` [NP, neryl monophosphate], the “phosphorylation by IPK” value [1] is reported as “did not result in detection of the corresponding pyrophosphate”.

For `C=CCC(C)OP(=O)(O)O` (stereo not drawn) [Substrate 2], the “CpaD-catalyzed alkylation of cyclic dipeptide: expected product detected” value (CpaD) was “products detected by HPLC and confirmed by LR-LCMS”, the “use as IPK substrate” value [3] was “detectable but kinetically irrelevant” and the “PhoN-catalyzed phosphorylation of alcohol: expected product detected” value (PhoN) was “mass ions were detected by HR-LCMS consistent with the expected product”. For the same molecule, the “FtmPT1-catalyzed alkylation of cyclic dipeptide: expected product detected” value (FtmPT1) was “products detected by HPLC and confirmed by LR-LCMS”.

`C=CCC(C)OP(=O)(O)OP(=O)(O)O` (stereo not drawn) [Substrate 19] was tested, and the “CpaD-catalyzed alkylation of cyclic dipeptide: expected product detected” value (CpaD) was “products detected by HPLC and confirmed by LR-LCMS”, the “PhoN-catalyzed phosphorylation of alcohol: expected product detected” value (PhoN) was “mass ions were detected by HR-LCMS consistent with the expected product” and the “FtmPT1-catalyzed alkylation of cyclic dipeptide: expected product detected” value (FtmPT1) was “products detected by HPLC and confirmed by LR-LCMS”. For the same molecule, the “FgaPT2-catalyzed alkylation of Trp: expected product detected” value (FgaPT2) was “mass ions were detected by HR-LCMS consistent with the expected product”.

In the case of `CCC/C=C/COP(=O)(O)O` [Substrate 29], the “use as extender unit in place of IPP (conversion by LC-MS), words” value (IspA Y80D) is reported as “most efficient analogues”, the kcat ([3]; IPK with monophosphorylated substrate, ± SD of the mean) is reported as 43.0 ± 17.8 s⁻¹ and the Km ([3]; IPK with monophosphorylated substrate, ± SD of the mean, 1 mM ATP, 30° C.) is reported as 6.83 ± 3.77 mM. For the same molecule, the “use as extender unit in place of IPP (GPP analogue by LC-MS), words” value ([4]; DMAPP as starter unit) was “accepted by IspA; also recorded: most efficient analogues”, the “use as extender unit in place of IPP (FPP analogue by LC-MS), words” value ([4]; GPP as starter unit) was “almost as good as that with IPP; also recorded: accepted by IspA” and the “use as extender unit in place of IPP (conversion by LC-MS), words” value (IspA S81F) was “most efficient analogues”.
